Experimental data reported in publication PMC5470993, “Discovery and characterization of small molecule Rac1 inhibitors” (Oncotarget, 2017).
Read-outs that look alike come from different tables or passages of the source.

Assays:
Rac1 (His-Rac1) [1] = target: T1, Rac1 (His-Rac1) (Homo sapiens, UniProt P63000); assay: GST-PAK1 pull-down of Rac1-GTP-γS, immunoblot; conditions: read-out: apparent binding affinity
T1 construct: wild type by context

Rac1 (His-Rac1) [2] = target: T1, Rac1 (His-Rac1); assay: GST-PAK1 pull-down of Rac1-GTP-γS, immunoblot; type: binding
[3] = target: T2, Rac1 (endogenous, CD18/HPAF cells) (Homo sapiens, UniProt P63000); assay: Rac1-GTP pull-down with GST-PAK1 from EGF-stimulated cells, immunoblot; type: cell-based; conditions: intact cells, 2 h compound, then EGF 100 ng/ml 5 min
T2 construct: endogenous Rac1 of CD18/HPAF human pancreatic cancer cells; Rac1-GTP captured with GST-PAK1 and blotted with Rac1 antibody 23A8

Rac1 (His-Rac1) [4] = target: T1, Rac1 (His-Rac1); assay: fluorescence polarization competition with mant-GDP; type: binding

Compound `Nc1nc2c(ncn2[C@@H]2O[C@H](COP(=O)(O)OP(=O)(O)OP(O)(O)=S)[C@@H](O)[C@H]2O)c(=O)[nH]1` [GTP-γS] has a Kd (Rac1 (His-Rac1) [1]) of 0.243 ± 0.093 µM.

`CC(=O)c1cccc(NC(=O)c2ccc(-c3cccc([N+](=O)[O-])c3)o2)c1` [#1, compound #1] showed an IC50 (Rac1 (His-Rac1) [2]; read-out: IC50) of 0.095 ± 0.021 µM, an EC50 [3] of 8.3 ± 1.7 µM and a Ki (Rac1 (His-Rac1) [4]) of 6.8 ± 1.4 µM.

`Cc1cc(C)cc(NC(=O)Cn2cc(C(=O)c3cccs3)c3ccccc32)c1` [#6, compound #6] showed an IC50 (Rac1 (His-Rac1) [2]) of 0.088 ± 0.048 µM and an EC50 [3] of 22.4 ± 3.2 µM.
